Measured values taken from PubChem BioAssay AID2060328 (Molecular Pharmacology Branch, DTP, NCI, 2025).
pIC50: −log10 of the molar value.

System: MDA-MB-231 multicell spheroids, viability (%T/C)
Test: Anticancer human tumor MDA-MB-231 cell line growth inhibition [IpAb];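 note: viability read after seven days of drug exposure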;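 for viability, T/C: 100% = DMSO vehicle control viability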
Settings: for pIC50: curve of first compound; for viability, T/C: stronger effect = lower value
Outline: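 Multi-cell spheroids of 60% tumour cells, 25% HUVEC and 15% MSC in ultra-low-attachment U-bottom wells, treated with agents combined with ipatasertib or abemaciclib. Half-log ranges top out near clinical Cmax, or 10 microM when Cmax is unknown.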

[1] = second compound 0.1 µM, first compound 0.0316 µM
[2] = second compound 0.1 µM, first compound 0.1 µM
[3] = second compound 0.316 µM, first compound 0.0316 µM
[4] = second compound 0.316 µM, first compound 0.1 µM
[5] = second compound 1 µM, first compound 0.0316 µM
[6] = second compound 1 µM, first compound 0.1 µM
[7] = second compound 3.16 µM, first compound 0.0316 µM
[8] = second compound 3.16 µM, first compound 0.1 µM
[9] = second compound 10 µM, first compound 0.0316 µM
[10] = second compound 10 µM, first compound 0.1 µM

Q: `Cn1ncc(Cl)c1-c1cc(C(=O)NC(CN)Cc2cccc(F)c2)sc1Cl` (stereo not given) + CC(C)NCC(C(=O)N1CCN(c2ncnc3c2C(C)CC3O)CC1)c1ccc(Cl)cc1 was tested. Which pIC50 (second compound 0.1 µM) did it give?
A: 5.80

Q: What about the pIC50 (second compound 0.316 µM) of the same compound?
A: 5.90

Q: And the pIC50 (second compound 1 µM)?
A: 5.96

Q: What about the pIC50 (second compound 3.16 µM) of the same compound?
A: 6.33

Q: What about the pIC50 (second compound 10 µM) of the same compound?
A: > 7.50

Q: What about the viability, T/C [1] of the same compound?
A: 99.1%

Q: What about the viability, T/C [2] of the same compound?
A: 88%

Q: And the viability, T/C (second compound 0.1 µM, first compound 0.316 µM)?
A: 80.3%

Q: And the viability, T/C (second compound 0.1 µM, first compound 1 µM)?
A: 61.8%

Q: And the viability, T/C (second compound 0.1 µM, first compound 3.16 µM)?
A: 33%

Q: What about the viability, T/C (second compound 0.1 µM, first compound 10 µM) of the same compound?
A: 0.11%

Q: What about the viability, T/C [3] of the same compound?
A: 70.7%

Q: What about the viability, T/C [4] of the same compound?
A: 79.4%

Q: What about the viability, T/C (second compound 0.316 µM, first compound 0.316 µM) of the same compound?
A: 71.2%

Q: And the viability, T/C (second compound 0.316 µM, first compound 1 µM)?
A: 49%

Q: And the viability, T/C (second compound 0.316 µM, first compound 3.16 µM)?
A: 34.3%

Q: What about the viability, T/C (second compound 0.316 µM, first compound 10 µM) of the same compound?
A: 0.12%

Q: And the viability, T/C [5]?
A: 74.1%

Q: And the viability, T/C [6]?
A: 71.9%

Q: What about the viability, T/C (second compound 1 µM, first compound 0.316 µM) of the same compound?
A: 63.1%

Q: And the viability, T/C (second compound 1 µM, first compound 1 µM)?
A: 50.6%

Q: And the viability, T/C (second compound 1 µM, first compound 3.16 µM)?
A: 32.8%

Q: What about the viability, T/C (second compound 1 µM, first compound 10 µM) of the same compound?
A: 0.11%

Q: And the viability, T/C [7]?
A: 57.3%

Q: And the viability, T/C [8]?
A: 59.1%

Q: What about the viability, T/C (second compound 3.16 µM, first compound 0.316 µM) of the same compound?
A: 49.7%

Q: What about the viability, T/C (second compound 3.16 µM, first compound 1 µM) of the same compound?
A: 43%

Q: What about the viability, T/C (second compound 3.16 µM, first compound 3.16 µM) of the same compound?
A: 33.6%

Q: What about the viability, T/C (second compound 3.16 µM, first compound 10 µM) of the same compound?
A: 0.34%

Q: What about the viability, T/C [9] of the same compound?
A: 42.2%

Q: What about the viability, T/C [10] of the same compound?
A: 41.1%

Q: What about the viability, T/C (second compound 10 µM, first compound 0.316 µM) of the same compound?
A: 37.5%

Q: And the viability, T/C (second compound 10 µM, first compound 1 µM)?
A: 37.5%

Q: And the viability, T/C (second compound 10 µM, first compound 3.16 µM)?
A: 26.1%

Q: And the viability, T/C (second compound 10 µM, first compound 10 µM)?
A: 0.49%

Q: What does the source list for `Cn1ncnc1[C@H]1c2n[nH]c(=O)c3cc(F)cc(c23)N[C@@H]1c1ccc(F)cc1` + CC(C)NCC(C(=O)N1CCN(c2ncnc3c2C(C)CC3O)CC1)c1ccc(Cl)cc1?
A: pIC50 (second compound 0.1 µM): < 7.00; pIC50 (second compound 0.316 µM): < 7.00; pIC50 (second compound 1 µM): < 7.00; pIC50 (second compound 3.16 µM): 8.63; pIC50 (second compound 10 µM): > 9.50; viability, T/C (second compound 0.1 µM, first compound 0.000316 µM): 96.6%; viability, T/C (second compound 0.1 µM, first compound 0.001 µM): 89.4%; viability, T/C (second compound 0.1 µM, first compound 0.00316 µM): 81.9%; viability, T/C (second compound 0.1 µM, first compound 0.01 µM): 78.9%; viability, T/C [1]: 76.6%; viability, T/C [2]: 73.1%; viability, T/C (second compound 0.316 µM, first compound 0.000316 µM): 83.9%; viability, T/C (second compound 0.316 µM, first compound 0.001 µM): 77%; viability, T/C (second compound 0.316 µM, first compound 0.00316 µM): 71.8%; viability, T/C (second compound 0.316 µM, first compound 0.01 µM): 70.1%; viability, T/C [3]: 69.1%; viability, T/C [4]: 62.1%; viability, T/C (second compound 1 µM, first compound 0.000316 µM): 70.4%; viability, T/C (second compound 1 µM, first compound 0.001 µM): 68.9%; viability, T/C (second compound 1 µM, first compound 0.00316 µM): 59.2%; viability, T/C (second compound 1 µM, first compound 0.01 µM): 58%; viability, T/C [5]: 56.8%; viability, T/C [6]: 56.5%; viability, T/C (second compound 3.16 µM, first compound 0.000316 µM): 54.6%; viability, T/C (second compound 3.16 µM, first compound 0.001 µM): 54.3%; viability, T/C (second compound 3.16 µM, first compound 0.00316 µM): 49.6%; viability, T/C (second compound 3.16 µM, first compound 0.01 µM): 44.9%; viability, T/C [7]: 45.7%; viability, T/C [8]: 47%; viability, T/C (second compound 10 µM, first compound 0.000316 µM): 42.3%; viability, T/C (second compound 10 µM, first compound 0.001 µM): 41%; viability, T/C (second compound 10 µM, first compound 0.00316 µM): 38.5%; viability, T/C (second compound 10 µM, first compound 0.01 µM): 33.8%; viability, T/C [9]: 34.9%; viability, T/C [10]: 34.1%

Q: What does the source list for `Cn1cnc2c(F)c(Nc3ccc(Br)cc3Cl)c(C(=O)NOCCO)cc21` + CCN1CCN(Cc2ccc(Nc3ncc(F)c(-c4cc(F)c5nc(C)n(C(C)C)c5c4)n3)nc2)CC1?
A: pIC50 (second compound 0.01 µM): 7.47; pIC50 (second compound 0.0316 µM): > 8.02; pIC50 (second compound 0.1 µM): > 8.02; pIC50 (second compound 0.316 µM): > 8.02; pIC50 (second compound 1 µM): > 8.02; viability, T/C (second compound 0.01 µM, first compound 0.00949 µM): 54.5%; viability, T/C (second compound 0.01 µM, first compound 0.03 µM): 53.4%; viability, T/C (second compound 0.01 µM, first compound 0.0949 µM): 42.8%; viability, T/C (second compound 0.01 µM, first compound 0.3 µM): 36.9%; viability, T/C (second compound 0.01 µM, first compound 0.949 µM): 32.3%; viability, T/C (second compound 0.01 µM, first compound 3 µM): 20.4%; viability, T/C (second compound 0.0316 µM, first compound 0.00949 µM): 46.3%; viability, T/C (second compound 0.0316 µM, first compound 0.03 µM): 40.9%; viability, T/C (second compound 0.0316 µM, first compound 0.0949 µM): 35.9%; viability, T/C (second compound 0.0316 µM, first compound 0.3 µM): 30.9%; viability, T/C (second compound 0.0316 µM, first compound 0.949 µM): 25.5%; viability, T/C (second compound 0.0316 µM, first compound 3 µM): 13.3%; viability, T/C (second compound 0.1 µM, first compound 0.00949 µM): 36.9%; viability, T/C (second compound 0.1 µM, first compound 0.03 µM): 30.1%; viability, T/C (second compound 0.1 µM, first compound 0.0949 µM): 29.6%; viability, T/C (second compound 0.1 µM, first compound 0.3 µM): 25.4%; viability, T/C (second compound 0.1 µM, first compound 0.949 µM): 19.2%; viability, T/C (second compound 0.1 µM, first compound 3 µM): 12.2%; viability, T/C (second compound 0.316 µM, first compound 0.00949 µM): 28.2%; viability, T/C (second compound 0.316 µM, first compound 0.03 µM): 27%; viability, T/C (second compound 0.316 µM, first compound 0.0949 µM): 22%; viability, T/C (second compound 0.316 µM, first compound 0.3 µM): 19.2%; viability, T/C (second compound 0.316 µM, first compound 0.949 µM): 16.1%; viability, T/C (second compound 0.316 µM, first compound 3 µM): 9.49%; viability, T/C (second compound 1 µM, first compound 0.00949 µM): 28.7%; viability, T/C (second compound 1 µM, first compound 0.03 µM): 25.3%; viability, T/C (second compound 1 µM, first compound 0.0949 µM): 20.1%; viability, T/C (second compound 1 µM, first compound 0.3 µM): 17.4%; viability, T/C (second compound 1 µM, first compound 0.949 µM): 14.9%; viability, T/C (second compound 1 µM, first compound 3 µM): 10.7%
